Reference: PubChem BioAssay (NCI)
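Values below derive from 48-hour exposures of cells grown in 96-well plates, with endpoints linearly interpolated between the two concentrations bracketing the appropriate inhibition level. GI50 marks 50% less growth. TGI: total growth inhibition.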

Key:
Experiment in all cases: NCI anticancer screen, dose series, 48 h
MCF7 breast = system: MCF7 breast
TK-10 renal = system: TK-10 renal
COLO 205 colon = system: COLO 205 colon
SF-539 CNS = system: SF-539 CNS
OVCAR-4 ovarian = system: OVCAR-4 ovarian
HOP-62 NSCLC = system: HOP-62 NSCLC
HCC-2998 colon = system: HCC-2998 colon
SF-268 CNS = system: SF-268 CNS
K-562 leukemia = system: K-562 leukemia
HS 578T breast = system: HS 578T breast
UACC-257 melanoma = system: UACC-257 melanoma
OVCAR-8 ovarian = system: OVCAR-8 ovarian
CAKI-1 renal = system: CAKI-1 renal
SK-MEL-2 melanoma = system: SK-MEL-2 melanoma
A549 NSCLC = system: A549 NSCLC
SNB-19 CNS = system: SNB-19 CNS
MALME-3M melanoma = system: MALME-3M melanoma
M14 melanoma = system: M14 melanoma
HCT-15 colon = system: HCT-15 colon
MDA-MB-435 = system: MDA-MB-435
HCT-116 colon = system: HCT-116 colon
BT-549 breast = system: BT-549 breast
NCI/ADR-RES ovarian = system: NCI/ADR-RES ovarian
SW-620 colon = system: SW-620 colon
OVCAR-5 ovarian = system: OVCAR-5 ovarian
NCI-H226 lung = system: NCI-H226 lung
RPMI-8226 leukemia = system: RPMI-8226 leukemia
EKVX NSCLC = system: EKVX NSCLC
CCRF-CEM leukemia = system: CCRF-CEM leukemia
SK-OV-3 ovarian = system: SK-OV-3 ovarian
SR leukemia = system: SR leukemia
SK-MEL-5 melanoma = system: SK-MEL-5 melanoma
IGROV1 ovarian = system: IGROV1 ovarian
DU-145 prostate = system: DU-145 prostate
KM12 colon = system: KM12 colon
HT29 colon = system: HT29 colon
ACHN renal = system: ACHN renal
SN12C renal = system: SN12C renal
MOLT-4 leukemia = system: MOLT-4 leukemia
OVCAR-3 ovarian = system: OVCAR-3 ovarian
A498 renal = system: A498 renal
RXF 393 renal = system: RXF 393 renal
UO-31 renal = system: UO-31 renal
U251 CNS = system: U251 CNS
NCI-H522 lung = system: NCI-H522 lung
SK-MEL-28 melanoma = system: SK-MEL-28 melanoma
PC-3 prostate = system: PC-3 prostate
MDA-MB-231 breast = system: MDA-MB-231 breast
NCI-H460 lung = system: NCI-H460 lung
HOP-92 NSCLC = system: HOP-92 NSCLC
SNB-75 CNS = system: SNB-75 CNS
SF-295 CNS = system: SF-295 CNS
HL-60(TB) leukemia = system: HL-60(TB) leukemia
T-47D breast = system: T-47D breast
786-0 renal = system: 786-0 renal
UACC-62 melanoma = system: UACC-62 melanoma

COc1cccc(N2CCN(c3ncnc4c3[nH]c3ccc(F)cc34)C[C@@H]2C)c1
GI50 (MCF7 breast): 1530 nM | TGI (MCF7 breast): 3450 nM | GI50 (TK-10 renal): 2140 nM | TGI (TK-10 renal): 4420 nM | GI50 (COLO 205 colon): 1430 nM | TGI (COLO 205 colon): 2800 nM | GI50 (SF-539 CNS): 2270 nM | TGI (SF-539 CNS): 5650 nM | GI50 (OVCAR-4 ovarian): 852 nM | TGI (OVCAR-4 ovarian): 3860 nM | GI50 (HOP-62 NSCLC): 1230 nM | TGI (HOP-62 NSCLC): 2760 nM | GI50 (HCC-2998 colon): 2610 nM | TGI (HCC-2998 colon): 8320 nM | GI50 (SF-268 CNS): 1980 nM | TGI (SF-268 CNS): 6720 nM | GI50 (K-562 leukemia): 1120 nM | TGI (K-562 leukemia): > 100000 nM | GI50 (HS 578T breast): 1770 nM | TGI (HS 578T breast): 8520 nM | GI50 (UACC-257 melanoma): 1880 nM | TGI (UACC-257 melanoma): 3620 nM | GI50 (OVCAR-8 ovarian): 762 nM | TGI (OVCAR-8 ovarian): 2040 nM | GI50 (CAKI-1 renal): 1670 nM | TGI (CAKI-1 renal): 5580 nM | GI50 (SK-MEL-2 melanoma): 1440 nM | TGI (SK-MEL-2 melanoma): 2820 nM | GI50 (A549 NSCLC): 1900 nM | TGI (A549 NSCLC): 5960 nM | GI50 (SNB-19 CNS): 2550 nM | TGI (SNB-19 CNS): 6900 nM | GI50 (MALME-3M melanoma): 1360 nM | TGI (MALME-3M melanoma): 3430 nM | GI50 (M14 melanoma): 1360 nM | TGI (M14 melanoma): 2730 nM | GI50 (HCT-15 colon): 1750 nM | TGI (HCT-15 colon): 4420 nM | GI50 (MDA-MB-435): 1590 nM | TGI (MDA-MB-435): 3180 nM | GI50 (HCT-116 colon): 1220 nM | TGI (HCT-116 colon): 3130 nM | GI50 (BT-549 breast): 343 nM | TGI (BT-549 breast): 1430 nM | GI50 (NCI/ADR-RES ovarian): 1210 nM | TGI (NCI/ADR-RES ovarian): 4350 nM | GI50 (SW-620 colon): 2270 nM | TGI (SW-620 colon): 6070 nM | GI50 (OVCAR-5 ovarian): 2280 nM | TGI (OVCAR-5 ovarian): 6160 nM | GI50 (NCI-H226 lung): 1320 nM | TGI (NCI-H226 lung): 3030 nM | GI50 (RPMI-8226 leukemia): 492 nM | TGI (RPMI-8226 leukemia): 3600 nM | GI50 (EKVX NSCLC): 1880 nM | TGI (EKVX NSCLC): 6160 nM | GI50 (CCRF-CEM leukemia): 603 nM | TGI (CCRF-CEM leukemia): > 100000 nM | GI50 (SK-OV-3 ovarian): 2430 nM | TGI (SK-OV-3 ovarian): 7470 nM | GI50 (SR leukemia): 2710 nM | TGI (SR leukemia): > 100000 nM | GI50 (SK-MEL-5 melanoma): 1310 nM | TGI (SK-MEL-5 melanoma): 2580 nM | GI50 (IGROV1 ovarian): 1710 nM | TGI (IGROV1 ovarian): 4670 nM | GI50 (DU-145 prostate): 1380 nM | TGI (DU-145 prostate): 2670 nM | GI50 (KM12 colon): 1220 nM | TGI (KM12 colon): 2730 nM | GI50 (HT29 colon): 2790 nM | TGI (HT29 colon): 9850 nM | GI50 (ACHN renal): 1490 nM | TGI (ACHN renal): 3720 nM | GI50 (SN12C renal): 1170 nM | TGI (SN12C renal): 2460 nM | GI50 (MOLT-4 leukemia): 999 nM | TGI (MOLT-4 leukemia): 4650 nM | GI50 (OVCAR-3 ovarian): 1500 nM | TGI (OVCAR-3 ovarian): 5590 nM | GI50 (A498 renal): 2850 nM | TGI (A498 renal): 8030 nM | GI50 (RXF 393 renal): 2240 nM | TGI (RXF 393 renal): 5450 nM | GI50 (UO-31 renal): 467 nM | TGI (UO-31 renal): 1680 nM | GI50 (U251 CNS): 2280 nM | TGI (U251 CNS): 6080 nM | GI50 (NCI-H522 lung): 592 nM | TGI (NCI-H522 lung): 2020 nM | GI50 (SK-MEL-28 melanoma): 1470 nM | TGI (SK-MEL-28 melanoma): 2910 nM | GI50 (PC-3 prostate): 912 nM | TGI (PC-3 prostate): 3540 nM | GI50 (MDA-MB-231 breast): 2270 nM | TGI (MDA-MB-231 breast): 6470 nM | GI50 (NCI-H460 lung): 2530 nM | TGI (NCI-H460 lung): 7340 nM | GI50 (HOP-92 NSCLC): 2280 nM | TGI (HOP-92 NSCLC): 6920 nM | GI50 (SNB-75 CNS): 1690 nM | TGI (SNB-75 CNS): 3060 nM | GI50 (SF-295 CNS): 1610 nM | TGI (SF-295 CNS): 3350 nM | GI50 (HL-60(TB) leukemia): 1250 nM | TGI (HL-60(TB) leukemia): 5190 nM | GI50 (T-47D breast): 310 nM | TGI (T-47D breast): 1640 nM | GI50 (786-0 renal): 2050 nM | TGI (786-0 renal): 5240 nM | GI50 (UACC-62 melanoma): 716 nM | TGI (UACC-62 melanoma): 2120 nM
